Results on one compound are retold here after PMC9867029, “Effect of Salts on the Conformational Dynamics of the Cytochrome P450 OleP” (Molecules, 2023).

This test has as its target T1, OleP (CYP107D1) (Streptomyces antibioticus, UniProt Q59819).
T1 sequence (Q59819 1-407): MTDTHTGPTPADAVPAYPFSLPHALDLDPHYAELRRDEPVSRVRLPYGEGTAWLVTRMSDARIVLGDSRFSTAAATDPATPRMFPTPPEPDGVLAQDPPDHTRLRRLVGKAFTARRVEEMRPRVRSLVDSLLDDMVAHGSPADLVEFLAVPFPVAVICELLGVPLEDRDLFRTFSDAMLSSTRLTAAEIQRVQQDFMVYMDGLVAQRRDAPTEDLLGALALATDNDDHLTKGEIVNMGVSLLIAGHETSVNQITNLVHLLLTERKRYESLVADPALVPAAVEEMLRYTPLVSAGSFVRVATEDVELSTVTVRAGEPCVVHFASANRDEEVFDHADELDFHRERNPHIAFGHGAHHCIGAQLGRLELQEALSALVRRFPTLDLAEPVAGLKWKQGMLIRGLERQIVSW
Briefly: UV-visible Soret spectral titration (type I shift), global hyperbolic fit. In kind it is binding. The text has this: UV-visible Soret spectral titration (type I shift), global hyperbolic fit on OleP (CYP107D1)

Usually Kd stands for the free concentration of one partner at which half of the binding sites on the other are occupied at equilibrium, for simple one-to-one binding.

Take `CC[C@H]1OC(=O)[C@H](C)[C@@H](O)[C@H](C)[C@@H](O)[C@@H](C)C[C@@H](C)C(=O)[C@H](C)[C@@H](O)[C@H]1C` [6DEB]: the Kd is 3.83 ± 0.06 µM.
